Patent US20130289077A1 (priority 2010, published 2013)

How the values were obtained:
[1] = Measurement of logP by HPLC on reversed phase columns (EEC directive 79/831 Annex V.A8); assay type: physicochemical; details: pH 2.7, 0.1% formic acid in water / acetonitrile gradient
Phytophthora infestans = assay type: in vivo; details: tomato young plants, preventive spray, 100 ppm of active ingredient, evaluated 7 days after inoculation; 0% = untreated control, 100% = no disease

SMILES	chromatographic logP ([1]; reversed phase HPLC column, read-out: LogP (HCOOH))	Eff. % (Phytophthora infestans) [%]	LogP (HCOOH) [1]
CCC(C)=NOC(=O)Nc1cccc(CO/N=C(/c2ccccc2)c2nnnn2C)n1 [Example 1, [(butan-2-ylideneamino)oxy]({6-[({[(Z)-(1-methyl-1H-tetrazol-5-yl)(phenyl)methylene]amino}oxy)methyl]pyridin-2-yl}amino)methanone]	3.27	95	–
CCCCC(C)=NOC(=O)Nc1cccc(CON=C(c2ccccc2)c2nnnn2C)n1 [Example 2]	–	92	3.96
CC(=NOC(=O)Nc1cccc(CON=C(c2ccccc2)c2nnnn2C)n1)c1ccccc1 [Example 3]	–	94	–
CCC(=NOC(=O)Nc1cccc(CON=C(c2ccccc2)c2nnnn2C)n1)c1ccccc1 [Example 4]	–	97	–
CC(=NOC(=O)Nc1cccc(CON=C(c2ccccc2)c2nnnn2C)n1)C(C)(C)C [Example 7]	–	95	–
Cn1nnnc1C(=NOCc1cccc(NC(=O)ON=C(CCl)C(C)(C)C)n1)c1ccccc1 [Example 8]	–	93	–
CCCCCCC(C)=NOC(=O)Nc1cccc(CON=C(c2ccccc2)c2nnnn2C)n1 [Example 11]	–	90	4.79
CC(=NOC(=O)Nc1cccc(CON=C(c2ccccc2)c2nnnn2C)n1)C(C)C [Example 13]	–	95	–
CC(C)=NOC(=O)Nc1cccc(CON=C(c2ccccc2)c2nnnn2C)n1 [Example 14]	–	92	–
CC(=NOC(=O)Nc1cccc(CON=C(c2ccccc2)c2nnnn2C)n1)C1CC1 [Example 18]	–	93	–
CCCCCC(C)=NOC(=O)Nc1cccc(CON=C(c2ccccc2)c2nnnn2C)n1 [Example 20]	–	95	4.39
